Test results as given in patent publication US20200072711A1, “FLUORESCENT ENDOPLASMIC RETICULUM TRACKERS FOR LIVE CELL IMAGING OF PATHOGENIC YEAST” (Ramot at Tel Aviv University Ltd., priority 2018, published 2020).
Converted amounts (≈) assume the structure as drawn.

Tested on: C. glabrata ATCC 66032
Test: Minimal inhibitory concentration broth double-dilution assay
Format: cell-based, Candida glabrata
Details: Nakaseomyces glabratus, ATCC66032, 24 h, 37° C., Casitone
Method: (§1) Minimal inhibitory concentration broth double-dilution assay. All strains were tested using the double-dilution method in 96-well plates (Corning). Yeast strains were grown in Casitone growth medium. Starter cultures were incubated for 24 h (37° C., 5% CO2, aerobic conditions) and then diluted 1:100 into fresh medium. Compounds dissolved in ethanol or in DMSO were added to the casitone broth to form the mother liquor (32 μL stock solution in 1218 μL of casitone) at the starting concentration of 64 μg/mL. Next, 100 μL of serial double dilutions of compounds in Casitone ([…], and 0.007 μg/mL) were prepared in flat-bottomed 96-well microplates (Corning). Control wells with no compounds, and wells without yeast cells containing each tested concentration of the compounds (blanks), were also prepared. An equal volume (100 μL) of yeast suspensions in Casitone broth that was prepared as follows: 900 mL doubly distilled H2O, 9 g Casitone (bacto-casitone), 5 g yeast extract, 11.5 g sodium citrate dihydrate, 20 g glucose. The yeast suspension was added to each well for a final volume of 200 μL. The ethanol or the DMSO concentrations ranged from 0.0012% to 1.3%. The final inoculum was between 5×10^4 colony-forming unit (CFU)/mL and 5×10^5 CFU/mL; identical results were obtained when using 5×10^3 CFU/mL as a final inoculum. After incubation for 24 h at 37° C. in 5% CO2, MTT (3-[4,5-dimethylthiazole-2-yl]-2,5-diphenyltetrazolium bromide; 50 μL of a 1 mg/mL solution in H2O) was added to each well followed by additional incubation at 37° C. for 2 h. Each concentration was tested in triplicate, and results were confirmed by two independent sets of experiments.
For `OC(Cn1cncn1)(Cn1cncn1)c1ccc(F)cc1F` [FLC, fluconazole, reference compound], the MIC was 64 mg/L (≈ 209 µM). For `CCN(CC)c1ccc2cc(C(=O)NCC(O)(Cn3cncn3)c3ccc(F)cc3F)c(=O)oc2c1` (centres unmarked) [Probe 1], the MIC was 8 mg/L (≈ 16.1 µM). In the case of `CCN(CC)c1ccc2cc(C(=O)NCC(O)(Cn3ccnn3)c3ccc(Cl)cc3Cl)c(=O)oc2c1` (centres unmarked) [Probe 3], the MIC is reported as over 64 mg/L. Work on `CCC(C)n1ncn(-c2ccc(N3CCN(c4ccc(OCC5COC(Cn6cncn6)(c6ccc(Cl)cc6Cl)O5)cc4)CC3)cc2)c1=O` (centres unmarked) [ITR, itraconazole, reference compound] yielded an MIC of 0.5 mg/L (≈ 0.709 µM).

Tested on: C. glabrata ATCC 2001
Test: as above
Format: cell-based, Candida glabrata
Details: Nakaseomyces glabratus, ATCC2001, 24 h, 37° C., Casitone
Method: as §1
`OC(Cn1cncn1)(Cn1cncn1)c1ccc(F)cc1F` [FLC, fluconazole, reference compound] gave an MIC of 64 mg/L (≈ 209 µM). `CCN(CC)c1ccc2cc(C(=O)NCC(O)(Cn3cncn3)c3ccc(F)cc3F)c(=O)oc2c1` (centres unmarked) [Probe 1] showed an MIC of 16 mg/L (≈ 32.2 µM). Compound `CCN(CC)c1ccc2cc(C(=O)NCC(O)(Cn3ccnn3)c3ccc(Cl)cc3Cl)c(=O)oc2c1` (centres unmarked) [Probe 3] has an MIC of over 64 mg/L. `CCC(C)n1ncn(-c2ccc(N3CCN(c4ccc(OCC5COC(Cn6cncn6)(c6ccc(Cl)cc6Cl)O5)cc4)CC3)cc2)c1=O` (centres unmarked) [ITR, itraconazole, reference compound] gave an MIC of 4 mg/L (≈ 5.67 µM).

Tested on: C. albicans SN152
Test: as above
Format: cell-based
Details: Candida albicans, 24 h, 37° C., Casitone
Method: as §1
`OC(Cn1cncn1)(Cn1cncn1)c1ccc(F)cc1F` [FLC, fluconazole, reference compound] gave an MIC of 0.5 mg/L (≈ 1.63 µM). For `CCN(CC)c1ccc2cc(C(=O)NCC(O)(Cn3cncn3)c3ccc(F)cc3F)c(=O)oc2c1` (centres unmarked) [Probe 1], the MIC was 0.007 mg/L (≈ 0.0141 µM). Compound `CCN(CC)c1ccc2cc(C(=O)NCC(O)(Cn3ccnn3)c3ccc(Cl)cc3Cl)c(=O)oc2c1` (centres unmarked) [Probe 3] has an MIC of over 64 mg/L. `CCC(C)n1ncn(-c2ccc(N3CCN(c4ccc(OCC5COC(Cn6cncn6)(c6ccc(Cl)cc6Cl)O5)cc4)CC3)cc2)c1=O` (centres unmarked) [ITR, itraconazole, reference compound] showed an MIC of 0.007 mg/L (≈ 0.00992 µM).

Tested on: C. albicans ATCC 24433
Test: as above
Format: cell-based
Details: Candida albicans, ATCC24433, 24 h, 37° C., Casitone
Method: as §1
Work on `OC(Cn1cncn1)(Cn1cncn1)c1ccc(F)cc1F` [FLC, fluconazole, reference compound] yielded an MIC of 0.5 mg/L (≈ 1.63 µM). Work on `CCN(CC)c1ccc2cc(C(=O)NCC(O)(Cn3cncn3)c3ccc(F)cc3F)c(=O)oc2c1` (centres unmarked) [Probe 1] yielded an MIC of 0.03 mg/L (≈ 0.0603 µM). With `CCN(CC)c1ccc2cc(C(=O)NCC(O)(Cn3ccnn3)c3ccc(Cl)cc3Cl)c(=O)oc2c1` (centres unmarked) [Probe 3] the MIC was over 64 mg/L. For `CCC(C)n1ncn(-c2ccc(N3CCN(c4ccc(OCC5COC(Cn6cncn6)(c6ccc(Cl)cc6Cl)O5)cc4)CC3)cc2)c1=O` (centres unmarked) [ITR, itraconazole, reference compound], the MIC was 0.015 mg/L (≈ 0.0213 µM).

Tested on: all tested Candida strains
Test: MIC assay, over the panel
Format: cell-based
Details: not given
Method: as §1, with “The final inoculum was between 5×10^4 colony-forming unit (CFU)/mL and 5×10^5 CFU/mL; identical results were obtained when using 5×10^3 CFU/mL as a final inoculum. After incubation for 24 h at 37° C. in 5% CO2, MTT (3-[4,5-dimethylthiazole-2-yl]-2,5-diphenyltetrazolium bromide; 50 μL of a 1 mg/mL solution in H2O) was added to each well followed by additional incubation at 37° C. for 2 h. Each concentration was tested in triplicate, and results were confirmed by two independent sets of experiments.” left out
The ER-labeling properties were evaluated by incubating the compounds with representative strains of C. albicans and C. glabrata. […]
`CCN(CC)c1ccc2cc(C(=O)NCC(O)(Cn3ccnn3)c3ccc(Cl)cc3Cl)c(=O)oc2c1` (centres unmarked) [Probe 3] gave an MIC of at least 64 mg/L.

Tested on: tested panel of Candida strains
Test: Live cell imaging, ER labeling
Format: cell-based
Details: panel of Candida strains (C. albicans and C. glabrata)
Method: Growth conditions for live cell imaging. Cells were grown to log phase in liquid YPD overnight at 30° C. in a 10 ml tube. Cells were diluted 1:10 and then incubated for 2 h at 30° C. to log phase.
Cell staining. The fluorescent probes were added to a final concentration of 10 μM for probes 1-6 to cells from a log phase culture grown in YPD broth media at 30° C. Cells were then incubated in the dark for a total of 60 min. Before imaging, cells were washed once with PBS buffer. For ER-tracker dyes, DiOC6 (1 μg/mL) and BODIPY™ TR Glibenclamide (1 μM), staining cells were incubated in a prepared Hanks' Balanced Salt Solution at 37° C. for 5 min and 30 min, respectively. For ER-tracker Blue-White DPX (1 μM), staining cells were incubated in YPD for 30 min at 30° C. For mitochondrial staining the previously reported Cy5-based mitochondrial dye was used (1 μg/mL). For staining, cells were incubated in YPD in the presence of dye for 5 min at 30° C. Cells were then washed with PBS buffer once.
Live cell imaging. Candida cells were resuspended in PBS buffer and 2 μL were placed on a glass slides and covered with glass coverslips. C. glabrata (ATCC 2001) cells treated with probes 1-6, all tested Candida cells treated with ER-tracker Blue-White DPX and inter-organelle interaction study were imaged on a MORE imaging system (TILL Photonics GmbH) with an Olympus UPlanApo 100X 1.3 NA oil immersion objective. The bandpass filter sets used to image probes 1-3 were excitation 427/10 nm and emission 510/20 nm. The bandpass filter sets used to image probes 4-6 were excitation 485/20 nm and emission 525/30 nm. The bandpass filter sets used to image ER-tracker Blue-White DPX were excitation 390/40 nm and emission 525/30 nm. The bandpass filter sets used to image Cy5-based mitochondrial dye were excitation 560/25 nm and emission 684/24 nm. C. albicans cells (ATCC 24433 and SN152) and C. glabrata (ATCC 66032) treated with probes 1-6 were imaged on a Nikon Ti microscope equipped with a Plan Apo VC 100X oil objective and a Zyla 5.5 sCMOS camera (Andor) run by NIS elements Ar software. The bandpass filter sets used to image probes 1-3, and DiOC6-stained cells were excitation 440 nm and emission 480/40 nm. The bandpass filter sets used to image cells treated with probes 4-6, excitation 470 nm and emission 525/50 nm were used. For Eno1-mCherry, excitation 585 nm and emission 630/75 nm were used. To optimize the probes, the effects of the concentration (1, 5 and 10 μM), incubation time (5, 30, 60 and 120 min) and media (YPD and HBSS) were investigated. Images were processed using ImageJ program. The smoothed imaged were generated using the convolve filter (Normalize Kernel).
For `CCN(CC)c1ccc2cc(C(=O)NCC(O)(Cn3ccnn3)c3ccc(Cl)cc3Cl)c(=O)oc2c1` (centres unmarked) [Probe 3], the staining pattern was “the distinct nuclear envelope and cortical structure of the ER were clearly observed”.

Tested on: not listed separately
Test: Absorption and emission spectra of fluorescent probes
Format: physicochemical
Details: 10 μM in PBS, pH=7.4
Method: FIGS. 4A-4F show absorption and emission spectra of probes 1-6 (10 μM in PBS, pH=7.4), respectively. Emission spectrum was measured after excitation at 420 nm.
General chemistry methods and instrumentation. ^1H-NMR spectra (including 1D-TOCSY) were recorded on BrukerAvance™ 400 or 500 MHz spectrometers, and chemical shifts (reported in ppm) were calibrated to CDCl3 (d=7.26) when CDCl3 was the solvent, or to CD3OD (d=3.31) when CD3OD was the solvent. ^13C-NMR spectra were recorded on BrukerAvance™ 400 or 500 MHz spectrometers at 100 or 125 MHz. ^19F-NMR spectra were recorded on BrukerAvance™ 400 or 500 MHz spectrometers at 375 or 470 MHz. Multiplicities are reported using the following abbreviations: b=broad, s=singlet, d=doublet, t=triplet, q=quartet. Coupling constants (J) are given in Hertz. HRESI mass spectra were measured on a Waters Synapt instrument. Chemical reactions were monitored by TLC (Merck, Silica gel 60 F254). Visualization was achieved using a cerium molybdate stain (5 g (NH4)2Ce(NO3)6, 120 g (NH4)6Mo7O24·4H2O, 80 mL H2SO4, 720 mL H2O) or with UV lamp. Unless otherwise stated, all chemicals were obtained from commercial sources. Compounds were purified using Geduran® Si 60 chromatography (Merck). The SpectraMax i3x Platform spectrophotometer from Molecular Devices was used for the measurement of the excitation and absorbance spectra of the fluorescent probes.
We first measured the absorption and emission spectra of fluorescent probes 1-6. […] This 70-nm redshift effect is attributed to the effect of the halogen atoms in the phenyl ring segment of these molecules: a difluorophenyl ring in probe 2 and a dichlorophenyl in probe 3.
`CCN(CC)c1ccc2cc(C(=O)NCC(O)(Cn3ccnn3)c3ccc(Cl)cc3Cl)c(=O)oc2c1` (centres unmarked) [Probe 3] gave an absorption spectrum maxima of 430 nm.

Same assay, conditions: 10 μM in PBS, pH=7.4; excitation at 420 nm
Work on `CCN(CC)c1ccc2cc(C(=O)NCC(O)(Cn3ccnn3)c3ccc(Cl)cc3Cl)c(=O)oc2c1` (centres unmarked) [Probe 3] yielded an emission maxima of 550 nm.
